# Measurements from patent US20070128217A1 (priority 2003, published 2007).
# Columns and labels:
# [1] = test system: antibodies in sera from SARS patients (sera 1a, 1b, 2, 6, 37, 62, London, SARS-yellow, SARS-green); format: binding, human; parameters: Binding of serum 6 to linear peptides of protein X1 of SARS-CoV Urbani / Binding of serum 37 to linear peptides of protein X1 of SARS-CoV Urbani / Binding of serum 6 to looped/cyclic peptide (PEPSCAN-ELISA) / Binding of serum 37 to looped/cyclic peptide (PEPSCAN-ELISA) / Binding of serum 37 to looped/cyclic peptides of protein X1 of SARS-CoV Urbani / Binding of serum 6 to linear peptides of protein X2 / Binding of serum 37 to linear peptides of protein X2 / Binding of serum 37 to looped/cyclic peptides of protein X2 of SARS-CoV Urbani / Binding of serum 6 to linear peptides of protein M of SARS-CoV Urbani / Binding of serum 37 to linear peptides of protein M of SARS-CoV Urbani / Binding of serum 6 to looped/cyclic peptides of protein M of SARS-CoV Urbani / Binding of serum 37 to looped/cyclic peptides of protein M of SARS-CoV Urbani / Binding of serum 6 to linear peptides of protein X3 of SARS-CoV Urbani / Binding of serum 37 to linear peptides of protein X3 of SARS-CoV Urbani / Binding of serum 37 to looped/cyclic peptides of protein X3 of SARS-CoV Urbani / Binding of serum 6 to linear peptides of protein X4 of SARS-CoV Urbani / Binding of serum 37 to linear peptides of protein X4 of SARS-CoV Urbani / Binding of serum 37 to looped/cyclic peptides of protein X4 of SARS-CoV Urbani / Binding of serum 6 to linear peptides of protein X5 of SARS-CoV Urbani / Binding of serum 37 to linear peptides of protein X5 of SARS-CoV Urbani / Binding of serum 37 to looped/cyclic peptides of protein X5 of SARS-CoV Urbani / Binding of serum 6 to linear peptides of protein N of SARS-CoV Urbani / Binding of serum 37 to linear peptides of protein N of SARS-CoV Urbani / Binding of serum 6 to linear peptide (PEPSCAN-ELISA) / Binding of serum 1a to looped/cyclic peptides of protein N of SARS-CoV Urbani / Binding of serum 1b to looped/cyclic peptides of protein N of SARS-CoV Urbani / Binding of serum 2 to looped/cyclic peptides of protein N of SARS-CoV Urbani / Binding of serum 6 to looped/cyclic peptides of protein N of SARS-CoV Urbani / Binding of serum 37 to looped/cyclic peptides of protein N of SARS-CoV Urbani / Binding of serum 62 to looped/cyclic peptides of protein N of SARS-CoV Urbani / Binding of serum London to looped/cyclic peptides of protein N of SARS-CoV Urbani / Binding of serum SARS-green to looped/cyclic peptides of protein N of SARS-CoV Urbani: unit not given here
# [2] = test system: control sera (pooled serum of ten healthy LUMC hospital workers; commercial negative donor pooled serum from the Dutch bloodbank); format: binding, human; parameters: Binding of Control serum LUMC to linear peptides / Binding of Control serum Blood-bank to linear peptides / Binding of Control serum LUMC to looped peptides / Binding of Control Serum Blood-Bank to Looped peptides / Binding of Control serum LUMC to linear peptides of the protein M of SARS-CoV Urbani / Binding of Control serum Blood-bank to linear peptides of the protein M of SARS-CoV Urbani / Binding of Control serum LUMC to looped peptides of the protein M of SARS-CoV Urbani / Binding of Control Serum Blood-Bank to Looped peptides of the protein M of SARS-CoV Urbani: unit not given here
# [3] = test system: rabbit serum obtained by immunizing a rabbit with the SARS-CoV strain Frankfurt 1; format: binding; parameters: Binding of a rabbit serum to linear peptides / Binding of a rabbit serum to looped peptides / Rabbit serum linear peptides / Rabbit serum looped peptides / Binding of a rabbit serum to linear peptides of protein N of SARS-CoV Urbani (Rabbit serum linear peptides) / Binding of a rabbit serum to looped/cyclic peptides of protein N of SARS-CoV Urbani (Rabbit serum looped peptides): unit not given here
sequence,measurement,setting,value
TMTTVYHITVSQIQL,Binding of serum 1a to linear peptides of protein X2,[1],0.6
same,Binding of serum 1a to looped/cyclic peptides of protein X2 of SARS-CoV Urbani,[1],0.4
same,Binding of serum 1b to linear peptides of protein X2,[1],0.2
same,Binding of serum 1b to looped/cyclic peptides of protein X2 of SARS-CoV Urbani,[1],0.4
same,Binding of serum 2 to linear peptides of protein X2,[1],0.4
same,Binding of serum 2 to looped/cyclic peptides of protein X2 of SARS-CoV Urbani,[1],0.3
same,Binding of serum 6 to linear peptides of protein X2,[1],0.5
same,Binding of serum 6 to looped/cyclic peptides of protein X2 of SARS-CoV Urbani,[1],0.2
same,Binding of serum 37 to linear peptides of protein X2,[1],0.7
same,Binding of serum 37 to looped/cyclic peptides of protein X2 of SARS-CoV Urbani,[1],0.4
same,Binding of serum 62 to linear peptides of protein X2,[1],0.3
same,Binding of serum 62 to looped/cyclic peptides of protein X2 of SARS-CoV Urbani,[1],0.5
same,Binding of serum London to linear peptides of protein X2,[1],0.4
same,Binding of serum London to looped/cyclic peptides of protein X2 of SARS-CoV Urbani,[1],0.2
same,Binding of serum SARS-green to linear peptides of protein X2,[1],0.2
same,Binding of serum SARS-green to looped/cyclic peptides of protein X2 of SARS-CoV Urbani,[1],0.3
same,Binding of serum SARS-yellow to linear peptides of protein X2,[1],0.7
same,Binding of serum SARS-yellow to looped/cyclic peptides of protein X2 of SARS-CoV Urbani,[1],0.3
same,Binding of Control Serum Blood-Bank to Looped peptides,[2],0.6
same,Binding of Control serum Blood-bank to linear peptides,[2],0.6
same,Binding of Control serum LUMC to linear peptides,[2],0.8
same,Binding of Control serum LUMC to looped peptides,[2],0.5
same,Binding of a rabbit serum to linear peptides,[3],0.7
same,Binding of a rabbit serum to looped peptides,[3],0.4
TNILLNVPLRGTIVT,Binding of serum 1a to linear peptides of protein M of SARS-CoV Urbani,[1],0.6
same,Binding of serum 1a to looped/cyclic peptides of protein M of SARS-CoV Urbani,[1],0.6
same,Binding of serum 1b to linear peptides of protein M of SARS-CoV Urbani,[1],0.5
same,Binding of serum 1b to looped/cyclic peptides of protein M of SARS-CoV Urbani,[1],0.4
same,Binding of serum 2 to linear peptides of protein M of SARS-CoV Urbani,[1],0.6
same,Binding of serum 2 to looped/cyclic peptides of protein M of SARS-CoV Urbani,[1],0.6
same,Binding of serum 6 to linear peptides of protein M of SARS-CoV Urbani,[1],0.4
same,Binding of serum 6 to looped/cyclic peptides of protein M of SARS-CoV Urbani,[1],0.8
same,Binding of serum 37 to linear peptides of protein M of SARS-CoV Urbani,[1],0.4
same,Binding of serum 37 to looped/cyclic peptides of protein M of SARS-CoV Urbani,[1],0.7
same,Binding of serum 62 to linear peptides of protein M of SARS-CoV Urbani,[1],0.5
same,Binding of serum 62 to looped/cyclic peptides of protein M of SARS-CoV Urbani,[1],0.6
same,Binding of serum London to linear peptides of protein M of SARS-CoV Urbani,[1],0.3
same,Binding of serum London to looped/cyclic peptides of protein M of SARS-CoV Urbani,[1],0.2
same,Binding of serum SARS-green to linear peptides of protein M of SARS-CoV Urbani,[1],0.5
same,Binding of serum SARS-green to looped/cyclic peptides of protein M of SARS-CoV Urbani,[1],0.2
same,Binding of serum SARS-yellow to linear peptides of protein M of SARS-CoV Urbani,[1],0.2
same,Binding of serum SARS-yellow to looped/cyclic peptides of protein M of SARS-CoV Urbani,[1],0.4
same,Binding of Control Serum Blood-Bank to Looped peptides of the protein M of SARS-CoV Urbani,[2],0.8
same,Binding of Control serum Blood-bank to linear peptides of the protein M of SARS-CoV Urbani,[2],0.8
same,Binding of Control serum LUMC to linear peptides of the protein M of SARS-CoV Urbani,[2],0.7
same,Binding of Control serum LUMC to looped peptides of the protein M of SARS-CoV Urbani,[2],0.6
same,Rabbit serum linear peptides,[3],0.2
same,Rabbit serum looped peptides,[3],0.1
TQITTDTGIENATFF,Binding of serum 1a to linear peptides of protein X1 of SARS-CoV Urbani,[1],0.7
same,Binding of serum 1a to looped/cyclic peptides of protein X1 of SARS-CoV Urbani,[1],0.5
same,Binding of serum 1b to linear peptides of protein X1 of SARS-CoV Urbani,[1],0.6
same,Binding of serum 1b to looped/cyclic peptides of protein X1 of SARS-CoV Urbani,[1],0.3
same,Binding of serum 2 to linear peptides of protein X1 of SARS-CoV Urbani,[1],0.5
same,Binding of serum 2 to looped/cyclic peptides of protein X1 of SARS-CoV Urbani,[1],0.2
same,Binding of serum 6 to linear peptides of protein X1 of SARS-CoV Urbani,[1],0.6
same,Binding of serum 6 to looped/cyclic peptides of protein X1 of SARS-CoV Urbani,[1],0.3
same,Binding of serum 37 to linear peptides of protein X1 of SARS-CoV Urbani,[1],0.7
same,Binding of serum 37 to looped/cyclic peptides of protein X1 of SARS-CoV Urbani,[1],0.4
same,Binding of serum 62 to linear peptides of protein X1 of SARS-CoV Urbani,[1],0.5
same,Binding of serum 62 to looped/cyclic peptides of protein X1 of SARS-CoV Urbani,[1],0.5
same,Binding of serum London to linear peptides of protein X1 of SARS-CoV Urbani,[1],0.3
same,Binding of serum London to looped/cyclic peptides of protein X1 of SARS-CoV Urbani,[1],0.2
same,Binding of serum SARS-green to linear peptides of protein X1 of SARS-CoV Urbani,[1],0.7
same,Binding of serum SARS-green to looped/cyclic peptides of protein X1 of SARS-CoV Urbani,[1],0.3
same,Binding of serum SARS-yellow to linear peptides of protein X1 of SARS-CoV Urbani,[1],0.5
same,Binding of serum SARS-yellow to looped/cyclic peptides of protein X1 of SARS-CoV Urbani,[1],0.4
same,Binding of Control Serum Blood-Bank to Looped peptides,[2],0.5
same,Binding of Control serum Blood-bank to linear peptides,[2],0.6
same,Binding of Control serum LUMC to linear peptides,[2],0.8
same,Binding of Control serum LUMC to looped peptides,[2],0.5
same,Binding of a rabbit serum to linear peptides,[3],0.1
same,Binding of a rabbit serum to looped peptides,[3],0.6
TQSTALQELLIQQWI,Binding of serum 1a to linear peptides of protein X2,[1],0.7
same,Binding of serum 1a to looped/cyclic peptides of protein X2 of SARS-CoV Urbani,[1],0.6
same,Binding of serum 1b to linear peptides of protein X2,[1],0.6
same,Binding of serum 1b to looped/cyclic peptides of protein X2 of SARS-CoV Urbani,[1],0.5
same,Binding of serum 2 to linear peptides of protein X2,[1],0.3
same,Binding of serum 2 to looped/cyclic peptides of protein X2 of SARS-CoV Urbani,[1],0.4
same,Binding of serum 6 to linear peptides of protein X2,[1],0.7
same,Binding of serum 6 to looped/cyclic peptides of protein X2 of SARS-CoV Urbani,[1],0.2
same,Binding of serum 37 to linear peptides of protein X2,[1],0.6
same,Binding of serum 37 to looped/cyclic peptides of protein X2 of SARS-CoV Urbani,[1],0.6
same,Binding of serum 62 to linear peptides of protein X2,[1],0.6
same,Binding of serum 62 to looped/cyclic peptides of protein X2 of SARS-CoV Urbani,[1],0.6
same,Binding of serum London to linear peptides of protein X2,[1],0.7
same,Binding of serum London to looped/cyclic peptides of protein X2 of SARS-CoV Urbani,[1],0.2
same,Binding of serum SARS-green to linear peptides of protein X2,[1],0.6
same,Binding of serum SARS-green to looped/cyclic peptides of protein X2 of SARS-CoV Urbani,[1],0.5
same,Binding of serum SARS-yellow to linear peptides of protein X2,[1],0.7
same,Binding of serum SARS-yellow to looped/cyclic peptides of protein X2 of SARS-CoV Urbani,[1],0.5
same,Binding of Control Serum Blood-Bank to Looped peptides,[2],0.7
same,Binding of Control serum Blood-bank to linear peptides,[2],0.8
same,Binding of Control serum LUMC to linear peptides,[2],0.6
same,Binding of Control serum LUMC to looped peptides,[2],0.6
same,Binding of a rabbit serum to linear peptides,[3],0.3
same,Binding of a rabbit serum to looped peptides,[3],0.4
TRPLMESELVIGAVI,Binding of serum 1a to linear peptides of protein M of SARS-CoV Urbani,[1],0.8
same,Binding of serum 1b to linear peptides of protein M of SARS-CoV Urbani,[1],0.7
same,Binding of serum 2 to linear peptides of protein M of SARS-CoV Urbani,[1],0.7
same,Binding of serum 6 to linear peptides of protein M of SARS-CoV Urbani,[1],0.6
same,Binding of serum 37 to linear peptides of protein M of SARS-CoV Urbani,[1],0.7
same,Binding of serum 62 to linear peptides of protein M of SARS-CoV Urbani,[1],0.6
same,Binding of serum London to linear peptides of protein M of SARS-CoV Urbani,[1],0.3
same,Binding of serum SARS-green to linear peptides of protein M of SARS-CoV Urbani,[1],0.8
same,Binding of serum SARS-yellow to linear peptides of protein M of SARS-CoV Urbani,[1],0.2
same,"Recognition of the peptide by sera of SARS-CoV infected individuals, and form (linear, looped/cyclic) in which it is recognized",[1],recognized in looped/cyclic form
same,Binding of Control Serum Blood-Bank to Looped peptides of the protein M of SARS-CoV Urbani,[2],1.1
same,Binding of Control serum Blood-bank to linear peptides of the protein M of SARS-CoV Urbani,[2],0.9
same,Binding of Control serum LUMC to linear peptides of the protein M of SARS-CoV Urbani,[2],1.0
same,Binding of Control serum LUMC to looped peptides of the protein M of SARS-CoV Urbani,[2],1.0
same,Rabbit serum linear peptides,[3],0.2
same,Rabbit serum looped peptides,[3],0.3
